Measurements as given in patent publication US8871753B2, “Macrocyclic compounds and their use as kinase inhibitors” (Incyte Corporation, priority 2008, dated 2014).
Structures can show the parent of a compound that is named as a salt. Where two headings read alike, the source gives them in different places.

Key:
[1] = cn_pd bond, 13-membered ring, Pd(OAc)2/Xantphos/Cs2CO3/Et3N
[2] = target: T1, human JAK1 (a.a. 837-1142) (Homo sapiens, UniProt P23458); assay: In vitro JAK kinase assay (HTRF, phosphorylation of a biotinylated peptide), JAK1; assay type: biochemical; settings: read-out: JAK1 IC50
T1 construct: human JAK1 (a.a. 837-1142); His tag (N); made in house; host or cells: insect cells (baculovirus)
T1 sequence (P23458 849-1154): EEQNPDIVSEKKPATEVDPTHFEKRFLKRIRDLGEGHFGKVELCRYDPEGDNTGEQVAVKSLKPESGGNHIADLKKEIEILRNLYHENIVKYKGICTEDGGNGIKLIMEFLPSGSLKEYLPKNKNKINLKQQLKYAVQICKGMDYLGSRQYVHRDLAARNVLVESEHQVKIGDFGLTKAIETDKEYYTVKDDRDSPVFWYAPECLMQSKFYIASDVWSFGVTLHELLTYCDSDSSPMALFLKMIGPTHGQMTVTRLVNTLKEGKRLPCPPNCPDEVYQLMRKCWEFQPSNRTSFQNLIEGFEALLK
Summary of the method: (§1)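 Kinase activity was measured as phosphorylation of a biotinylated peptide, with ATP at 90 μM for JAK1, 30 μM for JAK2 and 3 μM for JAK3. Reactions ran 1 hr at room temperature, were stopped with EDTA plus SA-APC and Eu-Py20, and were read by HTRF after 40 minutes of antibody binding.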

[3] = target: T2, human JAK2 (a.a. 828-1132) (Homo sapiens, UniProt O60674); assay: In vitro JAK kinase assay (HTRF, phosphorylation of a biotinylated peptide), JAK2; assay type: biochemical
T2 construct: JAK2 (a.a. 828-1132); His tag (N); made in house; host or cells: insect cells (baculovirus)
T2 sequence (O60674 828-1132): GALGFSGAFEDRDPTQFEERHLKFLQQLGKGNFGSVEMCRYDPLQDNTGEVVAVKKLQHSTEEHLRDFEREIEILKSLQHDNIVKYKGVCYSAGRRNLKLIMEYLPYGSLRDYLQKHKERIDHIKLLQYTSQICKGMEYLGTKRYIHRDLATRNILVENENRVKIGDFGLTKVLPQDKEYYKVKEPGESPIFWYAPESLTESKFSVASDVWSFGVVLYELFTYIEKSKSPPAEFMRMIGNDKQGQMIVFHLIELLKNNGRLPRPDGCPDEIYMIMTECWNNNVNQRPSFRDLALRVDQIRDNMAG
Summary of the method: as §1

TYK2 = TYK2 (Homo sapiens, UniProt P29597); assay: TYK2 kinase inhibition (Table A1); assay type: biochemical
Chain of TYK2 (P29597 whole entry): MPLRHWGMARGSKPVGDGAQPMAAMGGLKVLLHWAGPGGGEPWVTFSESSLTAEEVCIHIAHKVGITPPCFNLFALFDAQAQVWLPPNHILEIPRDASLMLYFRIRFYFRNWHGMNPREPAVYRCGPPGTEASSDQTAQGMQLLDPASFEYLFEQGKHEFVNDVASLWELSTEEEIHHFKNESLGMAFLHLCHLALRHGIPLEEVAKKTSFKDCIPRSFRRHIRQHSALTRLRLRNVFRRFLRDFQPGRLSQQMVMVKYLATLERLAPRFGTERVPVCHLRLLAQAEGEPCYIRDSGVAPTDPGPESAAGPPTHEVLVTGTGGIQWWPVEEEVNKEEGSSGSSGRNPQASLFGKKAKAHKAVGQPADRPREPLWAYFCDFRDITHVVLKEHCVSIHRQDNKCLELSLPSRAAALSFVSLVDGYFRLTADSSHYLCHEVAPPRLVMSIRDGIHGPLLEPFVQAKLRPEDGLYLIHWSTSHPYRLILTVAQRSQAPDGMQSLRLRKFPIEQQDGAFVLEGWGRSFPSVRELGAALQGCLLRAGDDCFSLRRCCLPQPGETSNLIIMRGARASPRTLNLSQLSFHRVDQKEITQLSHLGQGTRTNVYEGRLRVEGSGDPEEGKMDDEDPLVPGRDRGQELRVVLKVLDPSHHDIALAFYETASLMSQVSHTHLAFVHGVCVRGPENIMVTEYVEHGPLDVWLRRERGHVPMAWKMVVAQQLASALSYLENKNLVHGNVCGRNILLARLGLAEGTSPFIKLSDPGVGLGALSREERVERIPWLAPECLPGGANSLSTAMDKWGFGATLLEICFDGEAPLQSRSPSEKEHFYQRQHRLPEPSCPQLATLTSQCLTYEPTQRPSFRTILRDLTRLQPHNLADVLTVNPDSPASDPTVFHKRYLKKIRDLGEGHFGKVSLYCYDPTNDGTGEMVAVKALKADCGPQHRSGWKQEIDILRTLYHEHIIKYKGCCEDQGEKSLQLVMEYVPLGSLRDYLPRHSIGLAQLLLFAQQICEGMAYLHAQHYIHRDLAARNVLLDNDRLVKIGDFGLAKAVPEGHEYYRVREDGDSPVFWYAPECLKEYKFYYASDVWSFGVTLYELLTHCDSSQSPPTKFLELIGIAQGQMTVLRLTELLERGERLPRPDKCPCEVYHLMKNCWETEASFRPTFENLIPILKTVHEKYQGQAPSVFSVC

[4] = target: T3, Recombinant Human Anaplastic Lymphoma Kinase (Homo sapiens, UniProt Q9UM73); assay: ALK HTRF kinase assay; assay type: biochemical; settings: for ALK % inhibition at a concentration of 500 nM or 1 mM: compound at a concentration of 500 nM or 1 mM
T3 construct: purchased Invitrogen, Carlsbad, Calif
T3 sequence (Q9UM73 19-1620): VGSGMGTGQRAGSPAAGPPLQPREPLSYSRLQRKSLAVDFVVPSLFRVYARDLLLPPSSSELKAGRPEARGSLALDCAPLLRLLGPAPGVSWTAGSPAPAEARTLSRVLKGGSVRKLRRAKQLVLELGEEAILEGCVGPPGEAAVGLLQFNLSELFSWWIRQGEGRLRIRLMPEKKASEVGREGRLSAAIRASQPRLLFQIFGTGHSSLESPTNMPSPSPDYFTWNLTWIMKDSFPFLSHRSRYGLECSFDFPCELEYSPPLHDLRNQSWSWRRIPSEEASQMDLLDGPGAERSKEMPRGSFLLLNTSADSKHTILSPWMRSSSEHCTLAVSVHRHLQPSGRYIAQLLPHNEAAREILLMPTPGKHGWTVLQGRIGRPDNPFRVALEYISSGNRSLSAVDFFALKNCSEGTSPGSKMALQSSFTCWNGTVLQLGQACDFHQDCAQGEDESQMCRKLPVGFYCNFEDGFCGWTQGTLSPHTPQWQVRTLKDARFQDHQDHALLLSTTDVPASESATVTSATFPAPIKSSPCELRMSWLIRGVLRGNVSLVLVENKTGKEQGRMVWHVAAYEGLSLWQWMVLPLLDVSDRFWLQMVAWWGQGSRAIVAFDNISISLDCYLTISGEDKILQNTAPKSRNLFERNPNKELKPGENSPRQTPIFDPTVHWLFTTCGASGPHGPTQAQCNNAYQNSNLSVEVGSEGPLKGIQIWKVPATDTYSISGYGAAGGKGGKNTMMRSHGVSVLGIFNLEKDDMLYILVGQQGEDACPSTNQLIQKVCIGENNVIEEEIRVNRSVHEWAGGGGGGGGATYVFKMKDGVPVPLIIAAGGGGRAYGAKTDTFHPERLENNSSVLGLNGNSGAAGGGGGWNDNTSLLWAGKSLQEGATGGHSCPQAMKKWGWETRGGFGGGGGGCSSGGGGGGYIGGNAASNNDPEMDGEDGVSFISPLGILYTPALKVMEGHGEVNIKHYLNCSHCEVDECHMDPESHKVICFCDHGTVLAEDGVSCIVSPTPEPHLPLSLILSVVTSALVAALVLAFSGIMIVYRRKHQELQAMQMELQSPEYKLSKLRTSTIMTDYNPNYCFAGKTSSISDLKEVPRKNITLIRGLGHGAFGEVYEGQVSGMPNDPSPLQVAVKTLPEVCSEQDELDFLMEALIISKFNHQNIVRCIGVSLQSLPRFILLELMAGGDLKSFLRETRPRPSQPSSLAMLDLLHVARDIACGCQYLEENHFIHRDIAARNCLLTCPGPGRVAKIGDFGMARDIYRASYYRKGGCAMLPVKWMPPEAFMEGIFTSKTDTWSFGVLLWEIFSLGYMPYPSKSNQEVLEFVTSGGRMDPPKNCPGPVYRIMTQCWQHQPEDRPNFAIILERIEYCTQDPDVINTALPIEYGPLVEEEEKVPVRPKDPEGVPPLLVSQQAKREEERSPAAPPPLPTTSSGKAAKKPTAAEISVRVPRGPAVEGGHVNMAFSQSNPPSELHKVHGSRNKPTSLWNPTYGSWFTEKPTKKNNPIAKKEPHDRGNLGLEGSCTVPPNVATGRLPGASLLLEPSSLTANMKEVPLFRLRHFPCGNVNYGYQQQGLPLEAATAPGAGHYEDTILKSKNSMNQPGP
Summary of the method: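 TR-FRET read-out (Eu anti-pTyr antibody + streptavidin-APC) of biotin-peptide phosphorylation by recombinant human enzyme; IC50 by sigmoidal fit with top/bottom baselines and Hill slope.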

[5] = target: T4, human JAK3 (a.a. 781-1124) (Homo sapiens, UniProt P52333); assay: In vitro JAK kinase assay (HTRF, phosphorylation of a biotinylated peptide), JAK3; assay type: biochemical
T4 construct: JAK3 (a.a. 781-1124); His tag (N); made in house; host or cells: insect cells (baculovirus)
T4 sequence (P52333 781-1124): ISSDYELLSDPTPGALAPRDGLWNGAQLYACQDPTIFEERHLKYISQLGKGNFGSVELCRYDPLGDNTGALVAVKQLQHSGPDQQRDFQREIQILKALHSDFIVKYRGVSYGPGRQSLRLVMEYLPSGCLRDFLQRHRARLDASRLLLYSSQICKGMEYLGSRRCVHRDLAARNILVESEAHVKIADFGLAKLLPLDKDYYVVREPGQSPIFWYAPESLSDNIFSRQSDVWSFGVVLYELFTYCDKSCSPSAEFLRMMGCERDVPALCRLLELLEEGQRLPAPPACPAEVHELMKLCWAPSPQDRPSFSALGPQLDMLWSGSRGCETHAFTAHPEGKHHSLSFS
Summary of the method: as §1

Row | SMILES | IC50 [2] [nM] | IC50 [3] [nM] | IC50 (TYK2) [nM] | ALK % inhibition at a concentration of 500 nM or 1 mM [4] [%] | IC50 [5] [nM] | other results
1 | Fc1cnc2nc1Nc1cccc(c1)CCc1cc(ccn1)N2 [Example C13, 6-Fluoro-2,4,8,17,22-pentaazatetracyclo[14.3.1.1(3,7).1(9,13)]docosa-1(20),3(22),4,6,9(21),10,12,16,18-nonaene] | 70 | 17 | 16 | 18 | 154 | ring closure, isolated yield ([1]; from Nc1ccnc(CCc2cccc(Nc3nc(Cl)ncc3F)c2)c1, 1,4-dioxane, 120.0 mM, 150.0 °C, 0.5 h): 41%
2 | Nc1ccc2cc1CCc1cncc(c1)Nc1ncc(Cl)c(n1)N2 [Example B20, 6-Chloro-2,4,8,18,22-pentaazatetracyclo[14.3.1.1(3,7).1(9,13)]docosa-1(20),3(22),4,6,9(21),10,12,16,18-nonaen-12-amine tris(trifluoroacetate)] | – | – | – | – | – | ring closure, yield after HPLC (from Nc1cncc(CCc2cc(Nc3nc(Cl)ncc3Cl)ccc2N)c1, cn_pd bond, 13-membered ring, Pd2(dba)3/Xantphos/Cs2CO3/DIEA, 1,4-dioxane/DMF 3:1, 77.0 mM, 160.0 °C, 0.5 h): 23%; IC50 ([2]; Table B1): 1 nM; IC50 ([3]; Table B1): 1.3 nM; IC50 ([5]; Table B1): 6.7 nM; IC50 (TYK2; Table B1): 1.6 nM; ALK % of inhibition at a concentration of 500 nM or 1 mM ([4]; compound at a concentration of 500 nM or 1 mM (not specified), cells shown as percentage): 51%
3 | Fc1cnc2nc1Nc1cccc(c1)CCc1cncc(c1)N2 [Example C21, 6-Fluoro-2,4,8,18,22-pentaazatetracyclo[14.3.1.1(3,7).1(9,13)]docosa-1(20),3(22),4,6,9(21),10,12,16,18-nonaene bis(trifluoroacetate)] | 13 | 28 | 15 | 26 | 111 | ring closure, yield after HPLC (from Nc1cncc(CCc2cccc(Nc3nc(Cl)ncc3F)c2)c1, cn_pd bond, 13-membered ring, Pd(OAc)2/Xantphos/Cs2CO3/Et3N, 1,4-dioxane, 87.0 mM, 150.0 °C, 2.0 h): 37%
4 | Clc1cnc2nc1Nc1cccc(c1)CCc1cncc(c1)N2 [Example C19, 6-Chloro-2,4,8,18,22-pentaazatetracyclo[14.3.1.1(3,7).1(9,13)]docosa-1(20),3(22),4,6,9(21),10,12,16,18-nonaene bis(trifluoroacetate)] | 2.9 | 7 | 10 | 45 | 28 | ring closure, yield after HPLC (from Nc1cncc(CCc2cccc(Nc3nc(Cl)ncc3Cl)c2)c1, cn_pd bond, 13-membered ring, Pd(OAc)2/Xantphos/Cs2CO3/Et3N, 1,4-dioxane, 140.0 mM, 150.0 °C, 1.0 h): 28%
5 | Clc1cnc2nc1Nc1cccc(c1)CCOc1cccc(c1)N2 [Example D5, 6-Chloro-16-oxa-2,4,8,23-tetraazatetracyclo[15.3.1.1(3,7).1(9,13)]tricosa-1(21),3(23),4,6,9(22),10,12,17,19-nonaene trifluoroacetate] | – | – | – | – | – | ring closure, yield after HPLC (from OCCc1cccc(Nc2nc(Nc3cccc(O)c3)ncc2Cl)c1, ether bond, 14-membered ring, PPh3/DIAD, THF, 8.5 mM, 25.0 °C, 2.0 h): 20%; IC50 ([2]; Table D1): 30 nM; IC50 ([3]; Table D1): 15 nM; IC50 ([5]; Table D1): 36 nM; IC50 (TYK2; Table D1): 12 nM; IC50 ([4]; Table D1, 90 μM ATP): 509 nM

Now from value to compound, other results behind:

Row | IC50 [2] [nM] | IC50 [3] [nM] | IC50 (TYK2) [nM] | ALK % inhibition at a concentration of 500 nM or 1 mM [4] [%] | IC50 [5] [nM] | SMILES | other results
6 | 700 | 87 | 106 | 6 | – | Clc1cnc2nc1Nc1cccc(c1)CCc1ccnc(c1)N2 [Example C15, 6-Chloro-2,4,8,19,22-pentaazatetracyclo[14.3.1.1(3,7).1(9,13)]docosa-1(20),3(22),4,6,9(21),10,12,16,18-nonaene] | ring closure, isolated yield ([1]; from Nc1cc(CCc2cccc(Nc3nc(Cl)ncc3Cl)c2)ccn1, 1,4-dioxane/DMF 1:1, 57.0 mM, 160.0 °C, 0.33 h): 61%
7 | 10 | 2.8 | 5.7 | 19 | 17 | Clc1cnc2nc1Nc1cccc(c1)/C=C\c1cc(ccn1)N2 [Example C14, (14Z)-6-Chloro-2,4,8,17,22-pentaazatetracyclo[14.3.1.1(3,7).1(9,13)]docosa-1(20),3(22),4,6,9(21),10,12,14,16,18-decaene] | ring closure, isolated yield ([1]; from Nc1ccnc(/C=C\c2cccc(Nc3nc(Cl)ncc3Cl)c2)c1, 1,4-dioxane, 114.0 mM, 150.0 °C, 0.5 h): 35%
8 | 2.9 | 2.3 | 4.4 | 26 | 13 | Clc1cnc2nc1Nc1cccc(c1)/C=C\c1cncc(c1)N2 [Example C20, (14Z)-6-Chloro-2,4,8,18,22-pentaazatetracyclo[14.3.1.1(3,7).1(9,13)]docosa-1(20),3(22),4,6,9(21),10,12,14,16,18-decaene bis(trifluoroacetate)] | ring closure, yield after HPLC (from Nc1cncc(/C=C\c2cccc(Nc3nc(Cl)ncc3Cl)c2)c1, cn_pd bond, 13-membered ring, Pd(OAc)2/Xantphos/Cs2CO3/Et3N, 1,4-dioxane, 70.0 mM, 150.0 °C, 1.0 h): 30%
